Source: PubChem BioAssay (NCI)
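Step 1: Grow cells in 96-well plates. Step 2: Expose to compound for 48 hours at 5 concentrations. Step 3: Interpolate endpoints linearly; if unreached, use highest concentration. GI50: concentration for 50% inhibition of growth. TGI: total growth inhibition.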

What was measured:
Test in all cases: NCI-60 cell line screen, 48 h
ACHN renal = test system: ACHN renal
HCC-2998 colon = test system: HCC-2998 colon
HOP-62 NSCLC = test system: HOP-62 NSCLC
LOX IMVI melanoma = test system: LOX IMVI melanoma
OVCAR-5 ovarian = test system: OVCAR-5 ovarian
RXF 393 renal = test system: RXF 393 renal
SK-MEL-5 melanoma = test system: SK-MEL-5 melanoma
SK-OV-3 ovarian = test system: SK-OV-3 ovarian
SR leukemia = test system: SR leukemia
SF-295 CNS = test system: SF-295 CNS

Row | SMILES | GI50 (ACHN renal) | TGI (ACHN renal) | GI50 (HCC-2998 colon) | TGI (HCC-2998 colon) | GI50 (HOP-62 NSCLC) | TGI (HOP-62 NSCLC) | GI50 (LOX IMVI melanoma) | TGI (LOX IMVI melanoma) | GI50 (OVCAR-5 ovarian) | TGI (OVCAR-5 ovarian) | GI50 (RXF 393 renal) | TGI (RXF 393 renal) | GI50 (SK-MEL-5 melanoma) | TGI (SK-MEL-5 melanoma) | GI50 (SK-OV-3 ovarian) | TGI (SK-OV-3 ovarian) | GI50 (SR leukemia) | TGI (SR leukemia) | TGI (SF-295 CNS) | GI50 (SF-295 CNS)
1 | O=[N+]([O-])c1cc(S(=O)(=O)Oc2ccccc2)ccc1Cl | 3.22 µM | 9.05 µM | 1.74 µM | 3.33 µM | 6.06 µM | 19.2 µM | 1.78 µM | 3.69 µM | 2.29 µM | 5.17 µM | 5.57 µM | 17.7 µM | 4.06 µM | 15 µM | 6.21 µM | 18.8 µM | 0.421 µM | 5.8 µM | – | –
2 | CN(CC(N)=O)C(=O)N(CCCl)N=O | – | > 100 µM | – | > 100 µM | – | > 100 µM | – | > 100 µM | – | > 100 µM | – | > 100 µM | – | > 100 µM | – | > 100 µM | – | > 100 µM | > 100 µM | –
3 | CN1CCN(Cc2ccc(NC(=O)c3[nH]ncc3Nc3ncnc4sc5c(c34)CCCC5)cc2)CC1 | 0.19 µM | 0.969 µM | 0.535 µM | 2.07 µM | 0.286 µM | 1.45 µM | 0.289 µM | 1.71 µM | 0.383 µM | 1.73 µM | 0.229 µM | 0.949 µM | 0.543 µM | 1.87 µM | 0.198 µM | 3.01 µM | 0.173 µM | 0.527 µM | 1.78 µM | 0.373 µM
4 | CC(C)=CCC/C(C)=C/CC/C(C)=C/CC/C=C(\C)CC/C=C(\C)CCC(=O)Nc1ccn(C2OC(CO)C(O)C2(F)F)c(=O)n1 (stereo not drawn) | 0.0266 µM | 11.2 µM | 0.9 µM | 23 µM | 0.0507 µM | 2.38 µM | 0.347 µM | 14.5 µM | 1.21 µM | 26.3 µM | 1.09 µM | 7.15 µM | 0.168 µM | 4.75 µM | 0.0644 µM | 13.8 µM | 0.0391 µM | 0.374 µM | 0.154 µM | 0.0329 µM
5 | COC(=O)CC1NC(=O)C1C1(C)OCCO1 (stereo not drawn) | – | > 100 µM | – | > 100 µM | – | > 100 µM | – | > 100 µM | – | – | – | > 100 µM | – | > 100 µM | – | – | – | > 100 µM | > 100 µM | –
6 | BrCc1ccc(CBr)cc1 | 1.94 µM | 6.78 µM | 6.4 µM | 15.3 µM | 4.23 µM | 9.68 µM | 4.51 µM | > 100 µM | 9.61 µM | 29.1 µM | 5.61 µM | 16.2 µM | 14.3 µM | 40.2 µM | 0.477 µM | 7.24 µM | > 100 µM | > 100 µM | 15.8 µM | 5.12 µM
7 | C[C@@H]1O[C@@H](OC[C@H]2O[C@@H](OCCc3ccc(O)c(O)c3)[C@H](O)[C@@H](O)[C@@H]2OC(=O)/C=C/c2ccc(O)c(O)c2)[C@H](O)[C@H](O)[C@H]1O | > 100 µM | > 100 µM | 69.3 µM | > 100 µM | > 100 µM | > 100 µM | > 100 µM | > 100 µM | > 100 µM | > 100 µM | > 100 µM | > 100 µM | > 100 µM | > 100 µM | > 100 µM | > 100 µM | 93.8 µM | > 100 µM | > 100 µM | > 100 µM
8 | CC(C)(C)c1ccc(C(=O)Nc2sc3c(c2C(N)=O)CCC(=O)C3)cc1 | 0.352 µM | 1.1 µM | 1.97 µM | 4.22 µM | 2.38 µM | 6.62 µM | 0.398 µM | 1.51 µM | 1.49 µM | 3.82 µM | 0.426 µM | 1.94 µM | 1.53 µM | 2.96 µM | 2.81 µM | 8.75 µM | 0.363 µM | 10.1 µM | 2.73 µM | 1.21 µM
9 | CCn1c2ccccc2c2cc(/C=C(/C#N)C(N)=O)ccc21 | > 76 µM | > 100 µM | 4.22 µM | 25.3 µM | 4.81 µM | 41.8 µM | 14.4 µM | > 100 µM | 0.668 µM | 3.95 µM | 2.57 µM | 19.3 µM | 8.5 µM | 54.2 µM | 21.8 µM | > 78.1 µM | 3.54 µM | > 100 µM | 30 µM | 3.42 µM
10 | CCN1C(=O)N(CC)C2C1NN=c1s/c(=C3\C(=O)N(CCc4ccccc4)c4ccccc43)c(=O)n12 (stereo not drawn) | 0.767 µM | – | 1.15 µM | > 25 µM | 0.697 µM | 9.97 µM | 0.527 µM | 4.94 µM | 0.927 µM | – | 0.262 µM | 1.01 µM | 0.305 µM | 1.23 µM | 0.542 µM | 5.77 µM | 0.461 µM | > 36.2 µM | 7.75 µM | 0.363 µM
11 | Nc1ccccc1SCc1csc(-c2ccc(Cl)cc2)n1 | – | 73.2 µM | – | 47.1 µM | – | > 90.6 µM | – | 35.2 µM | – | > 95.2 µM | – | 60.4 µM | – | 28.7 µM | – | > 89.6 µM | – | 29.9 µM | > 100 µM | –
12 | Cn1cncc1CC1COC(=O)C1C(O)c1ccccc1 (stereo not drawn) | – | > 100 µM | – | > 100 µM | – | > 100 µM | – | > 100 µM | – | > 100 µM | – | > 100 µM | – | > 100 µM | – | > 100 µM | – | > 100 µM | > 100 µM | –
13 | Cn1c2ccccc2n2c(=O)c3c(c(C#N)c12)CCCC3 | – | > 100 µM | – | > 100 µM | – | > 100 µM | – | > 100 µM | – | > 100 µM | – | > 100 µM | – | > 100 µM | – | > 100 µM | – | > 100 µM | > 100 µM | –
14 | CC1(C)CCC[C@]2(C)[C@@H](C=O)C(C=O)=CC[C@@H]12 | – | 30.6 µM | – | 32.7 µM | – | > 100 µM | – | 42.2 µM | – | 33.2 µM | – | 34.6 µM | – | 29 µM | – | > 100 µM | – | 44.5 µM | 75.1 µM | –
15 | CCN(Cc1ccc(Cl)s1)c1ccc(CO)c(Cl)c1 | 4.68 µM | > 100 µM | 5.81 µM | 28.6 µM | 0.746 µM | 18.4 µM | 5.24 µM | 18.8 µM | 0.0644 µM | 0.297 µM | 2.1 µM | 14.6 µM | 1.9 µM | 18.1 µM | 2.74 µM | 18.2 µM | 17.6 µM | 57.1 µM | 15.9 µM | 0.352 µM
16 | CN(C)CC1CCCC1=O (stereo not drawn) | – | 7.08 µM | – | 4.44 µM | – | 31.3 µM | – | 4 µM | – | 12.5 µM | – | 6.63 µM | – | 6.71 µM | – | 28.6 µM | – | 0.289 µM | 35.8 µM | –
17 | CC(C)c1c2[nH]c3ccccc3c2c(C(C)C)c2[nH]c3ccccc3c12 | – | > 100 µM | – | > 100 µM | – | > 100 µM | – | > 100 µM | – | > 100 µM | – | > 100 µM | – | > 100 µM | – | > 100 µM | – | > 100 µM | > 100 µM | –
18 | C[CH2][Pb]([CH2]C)([CH2]C)[O]C(=O)c1ccc2ccccc2n1 | > 10 µM | > 10 µM | > 10 µM | > 10 µM | > 10 µM | > 10 µM | > 10 µM | > 10 µM | > 10 µM | > 10 µM | > 10 µM | > 10 µM | > 10 µM | > 10 µM | > 10 µM | > 10 µM | > 10 µM | > 10 µM | > 10 µM | > 10 µM
19 | O=C1NC(=O)C(c2cccc(Cl)c2)=C1Nc1ccc(O)c(Cl)c1 | 11.4 µM | > 25 µM | 24.6 µM | > 25 µM | 9.57 µM | 24.3 µM | 8.85 µM | > 25 µM | 22.4 µM | > 25 µM | 6.4 µM | 24.8 µM | 5.46 µM | 18.6 µM | 6.62 µM | 16.2 µM | 11.3 µM | > 25 µM | > 25 µM | 11.6 µM
20 | COc1cc(/C=C/[N+](=O)[O-])cc(Br)c1OC | 2.5 µM | 6.49 µM | 1.71 µM | 3.15 µM | 3.32 µM | 10.1 µM | 0.899 µM | 2.18 µM | 14.3 µM | 30.8 µM | 1.61 µM | 3.01 µM | 2.13 µM | 4.93 µM | 13.4 µM | 26.5 µM | 2.02 µM | > 100 µM | 9.88 µM | 2.64 µM
21 | CC1(C)N=C(N)N=C(N)N1c1ccc(CCCCc2ccc(S(=O)(=O)F)cc2)c(Cl)c1 | 0.789 µM | > 100 µM | 0.884 µM | 20.9 µM | 1.45 µM | 23.7 µM | 0.0723 µM | 15.3 µM | 0.124 µM | 83.8 µM | 0.0862 µM | > 61.2 µM | 0.345 µM | 12.5 µM | 7.97 µM | 25.5 µM | 0.051 µM | 23.2 µM | 18.2 µM | 0.636 µM
22 | Fc1cccc(C2SCc3nc4ccccc4n32)c1F (stereo not drawn) | – | > 100 µM | – | > 100 µM | – | > 100 µM | – | > 100 µM | – | > 100 µM | – | > 100 µM | – | 53.2 µM | – | > 100 µM | – | > 100 µM | > 100 µM | –
23 | C/C=C(\C)c1cc(O)c(C)c2c1Oc1cc(O)c(Cl)c(C)c1C(=O)O2 | – | 54.6 µM | – | 26.5 µM | – | 51.1 µM | – | 31.6 µM | – | 30.2 µM | – | 34.1 µM | – | 26.9 µM | – | – | – | 49.5 µM | 32.4 µM | –
